Each structure is given as a SMILES string. In brackets after ≈: the same amount, converted by molar mass. Activity calls are given as the source filed them. No cut-off for these calls is given here.

For data set [1], the system named is Giardia intestinalis. In words: […] activity against Giardia intestinalis ATCC 30888 after 48 hrs by XTT assay. The class given is functional, organism-based. Conditions: Giardia duodenalis.
Data set [2] relates to Giardia intestinalis. In words: […] activity against Giardia intestinalis ATCC 30888 at 10 ug/mL after 48 hrs by XTT assay. Conditions: Giardia duodenalis. Type of data set: functional, organism-based.
Data set [3] relates to Giardia intestinalis. Kind of data set: […] activity against Giardia intestinalis ATCC 30888 assessed as impairment of parasite motility after 4 hrs. Type of data set: functional, organism-based. Conditions: Giardia duodenalis.
For data set [4], the system named is Giardia intestinalis. In words: […] activity against Giardia intestinalis ATCC 30888 assessed as impairment of parasite motility after 2 hrs. Type of data set: functional, organism-based. The conditions noted are these: Giardia duodenalis.
The subject of data set [5] is Trichomonas. In words: Antimicrobial activity against Trichomonas. Type of data set: functional, organism-based.
In data set [6] the test system is Trichomonas. Kind of data set: Antimicrobial activity against Trichomonas up to 25 ug/mL. The class given is functional, organism-based.
Data set [7] concerns Mus musculus. Kind of data set: Toxicity in C57B mouse assessed as induction of adverse feeding behavior at 40 mg/kg, po administered once daily for 3 days. Type of data set: organism-based. Also on record: dose 40 mg/kg, route oral. Conditions: in vivo, 72 h.
Data set [8] has as its system Mus musculus. In words: Toxicity in C57B mouse assessed as adverse effect on body weight at 40 mg/kg, po administered once daily for 3 days. Also on record: dose 40 mg/kg, route oral. Type of data set: organism-based. Conditions: in vivo, 72 h.
Data set [9] relates to Mus musculus. In words: Toxicity in C57B mouse assessed as induction of adverse grooming behavior at 40 mg/kg, po administered once daily for 3 days. The class given is organism-based. Further details: dose 40 mg/kg, route oral. The conditions noted are these: in vivo, 72 h.
The subject of data set [10] is Mus musculus. Kind of data set: Toxicity in C57B mouse assessed as induction of adverse effect on gross behavior at 40 mg/kg, po administered once daily for 3 days. Also on record: dose 40 mg/kg, route oral. The conditions noted are these: in vivo, 72 h. Type of data set: organism-based.
The test system of data set [11] is Giardia intestinalis. Kind of data set: […] activity against Giardia intestinalis infected in C57B mouse assessed as decrease in intestinal parasite load at 10 mg/day administered 3 day postinfection for 4 days. Type of data set: functional, organism-based. Conditions: Giardia duodenalis.
The subject of data set [12] is Mus musculus. In words: Toxicity in C57B mouse assessed as induction of adverse effect on appearance at 40 mg/kg, po administered once daily for 3 days. The class given is organism-based. Also on record: dose 40 mg/kg, route oral. The conditions noted are these: in vivo, 72 h.
The subject of data set [13] is Giardia intestinalis. Kind of data set: […] activity against Giardia intestinalis infected in C57B mouse assessed as intestinal motile trophozoites count at 10 mg/day administered 3 day postinfection for 4 days. The class given is functional, Giardia duodenalis.
Data set [14] concerns Giardia intestinalis. In words: […] activity against Giardia intestinalis infected in C57B mouse assessed as increase in disease cure rate at 10 mg/day administered 3 day postinfection for 4 days. Conditions: Giardia duodenalis. The class given is functional, organism-based.
In another data set the test system is Vero. In words: Cytotoxicity against african green monkey Vero cells up to 50 ug/mL after 48 hrs by neutral red dye assay. The conditions noted are these: chlorocebus sabaeus. The class given is cell-based.
In data set [15] the test system is Giardia intestinalis. Kind of data set: Antifungal activity against Giardia intestinalis. Type of data set: functional, organism-based. Conditions: Giardia duodenalis.

As to `COc1ccc(-c2coc3cc(O)c(OC)cc3c2=O)cc1` [CASTANIN], the 50% inhibitory concentration (IC50) in the data set with Giardia intestinalis [1] was over 5 mg/L.
Regarding `O=c1c(-c2ccc(O)cc2)coc2cc(O)cc(O)c12` [GENISTEIN], the IC50 in the data set on Giardia intestinalis [1] was over 5 mg/L.
As to `COc1ccc(-c2coc3cc(O)c(OC)cc3c2=O)cc1O`, in the data set with Giardia intestinalis [2], the result was inactive.
`O=c1c(-c2ccc(O)cc2)coc2cc(O)ccc12` [DAIDZEIN] registered an IC50 in the data set on Giardia intestinalis [1] of 3.75 mg/L (≈ 14.7 µM).
`COc1cc2c(=O)c(-c3ccc4c(c3)OCO4)coc2cc1O` [FUJIKINETIN] yielded a concentration for half-maximal inhibition (IC50) with Giardia intestinalis [1] of 1.5 mg/L (≈ 4.8 µM).
In the case of `Cc1ncc([N+](=O)[O-])n1CCO` [METRONIDAZOLE], the result in the data set on Giardia intestinalis [3] and in the data set with Giardia intestinalis [4] was inactive. Also, the result in the data set on Trichomonas [5] was Active. Moreover, the IC50 in the data set with Giardia intestinalis [1] came to 0.1 mg/L (≈ 0.584 µM).
In the case of `O=c1c(-c2ccc3c(c2)OCO3)coc2cc(O)ccc12` [PSEUDOBAPTOGENIN], the half-maximal inhibitory concentration (IC50) in the data set on Giardia intestinalis [1] came out at 0.56 mg/L (≈ 1.98 µM).
As for `COc1ccc(-c2coc3cc(O)ccc3c2=O)cc1` [FORMONONETIN], the IC50 is under 1 mg/L in the data set on Giardia intestinalis [3], under 1 mg/L in the data set with Giardia intestinalis [4] and 0.03 mg/L (≈ 0.112 µM) in the data set with Giardia intestinalis [1]. For the same compound, the result with Trichomonas [6], in the data set on Giardia intestinalis [11] and in the data set with Giardia intestinalis [14] was Active. Moreover, the Activity entry is on record as “Non-toxic” with Mus musculus [7]; “Non-toxic” with Mus musculus [8]; “Non-toxic” with Mus musculus [9]; “Non-toxic” with Mus musculus [10]; “Non-toxic” with Mus musculus [12]; 0.1 in the data set on Giardia intestinalis [13]. Besides, the Activity result in the data set on Vero is listed as “Non-toxic”.
For `Oc1cc(O)c2c(c1)O[C@H](c1ccc(O)c(O)c1)[C@H](O)C2` [(-)-EPICATECHIN], in the data set with Giardia intestinalis [15], the IC50 is under 1 mg/L.
`COc1cc2c(=O)c(-c3ccc(O)cc3)coc2cc1O`: the outcome with Giardia intestinalis [2] was inactive.
In the data set on Giardia intestinalis [1], `COc1cc2c(cc1-c1coc3cc(O)ccc3c1=O)OCO2` [CUNEATIN] displayed a 50% inhibitory concentration (IC50) of over 10 mg/L. Also, the result in the data set on Giardia intestinalis [2] was inactive.
Consider `COc1ccc(-c2coc3cc(O)cc(O)c3c2=O)cc1` [BIOCHANIN], for which the IC50 with Giardia intestinalis [1] stood at 3.5 mg/L (≈ 12.3 µM).

A word on the IC50: it is the concentration needed to halve the response being measured.

For the origin of these results see ChEMBL document CHEMBL1155607, “Antigiardial activity of isoflavones from Dalbergia frutescens bark” (J Nat Prod, 2000).
